Bridge positions count the residues as written; N and C are the ends. Square brackets hold non-standard residues; d marks the D form. Peptide text beside a SMILES is read from it. * marks the point of attachment. ξ: configuration not given here. Bip = N[C@@H](Cc1ccc(-c2ccccc2)cc1)C(=O)O; Phe(3-Me) = Cc1cccc(C[C@H](N)C(=O)O)c1; Cha = N[C@@H](CC1CCCCC1)C(=O)O; Cit = NC(=O)NCCC[C@H](N)C(=O)O; Carboxymethyl = O=C(O)C*; Orn = NCCC[C@H](N)C(=O)O; Aun = NCCCCCCCCCCC(=O)O; Dab = NCC[C@H](N)C(=O)O; Dap = NC[C@H](N)C(=O)O; AEEA = NCCOCCOCC(=O)O; ξC = NC(CS)C(=O)O
Molecular target: T1, PD-1/PD-L1 interaction (PE-labeled human PD-L1-Ig binding to Jurkat cell line over-expressing human PD-1) (Homo sapiens, UniProt Q15116)
T1 construct: expressed in transfected cells; host or cells: Jurkat
T1 sequence (Q15116 25-288): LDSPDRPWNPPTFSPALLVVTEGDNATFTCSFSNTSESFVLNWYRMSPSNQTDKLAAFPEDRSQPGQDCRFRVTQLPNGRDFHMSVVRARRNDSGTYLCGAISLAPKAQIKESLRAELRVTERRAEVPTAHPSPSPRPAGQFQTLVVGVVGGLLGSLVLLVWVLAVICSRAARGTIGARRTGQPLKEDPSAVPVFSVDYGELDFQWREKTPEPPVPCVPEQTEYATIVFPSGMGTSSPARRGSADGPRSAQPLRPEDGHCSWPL
Assay: Jurkat-PD-1 Cell Binding High-Content Screening Assay (CBA)
Type: cell-based
Details: Jurkat cell line over-expressing human PD-1; PE-labeled PD-L1-Ig 20 nM final; read-out: Jurkat hPD1-PDL1 IC50
Procedure, shortened: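 Human PD-L1-Ig carrying a covalent PE label on its Ig tag serves as the probe, applied at 20 nM final to compound-treated (2 h, 37° C) Jurkat-hPD-1 cells in medium with 10% fetal calf serum. After one hour, fixation and nuclear staining precede high-content image analysis.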

Structure (SMILES) | IC50 [nM]
Cc1cccc(C[C@@H]2NC(=O)[C@H](CC(=O)O)NC(=O)[C@H](Cc3ccc(OCC(=O)O)cc3)NC(=O)[C@H](CN)NC(=O)CSC[C@@H](C(=O)N[C@@H](CCCCN)C(=O)NCCCCCCCCCCC(=O)O)NC(=O)[C@H](CCCNC(N)=O)NC(=O)[C@H](C(C)C)NC(=O)[C@H](CC3CCCCC3)NC(=O)[C@H](CCN)NC(=O)[C@@H](CC(C)C)NC(=O)[C@H](CCCN)NC(=O)[C@H](CCCNC(N)=O)NC(=O)[C@H](Cc3ccc(-c4ccccc4)cc3)NC(=O)[C@H](C(C)C)NC2=O)c1 [Compound 2641] ({CH2CO}-[Dap]Y(Carboxymethyl)D[Phe(3-Me)]V[Bip][Cit][Orn][dL][Dab][Cha]V[Cit]CK[Aun]-OH; thioether N-14) | 27.7
CC(C)C[C@H]1NC(=O)[C@H](CCCN)NC(=O)[C@H](CCCNC(N)=O)NC(=O)[C@H](Cc2ccc(-c3ccccc3)cc2)NC(=O)[C@H](C(C)C)NC(=O)[C@H](Cc2c[nH]c3ccccc23)NC(=O)[C@H](CC(=O)O)NC(=O)[C@H](Cc2ccc(OCC(=O)O)cc2)NC(=O)[C@H](CN)NC(=O)CSCC(C(=O)NCCOCCOCC(=O)NCCCCCCCCCCC(=O)O)NC(=O)[C@H](CCCCN)NC(=O)[C@H](C(C)C)NC(=O)[C@H](CC2CCCCC2)NC(=O)[C@H](CCN)NC1=O (stereo partly drawn) [Compound 2643] ({CH2CO}-[Dap]Y(Carboxymethyl)DWV[Bip][Cit][Orn][dL][Dab][Cha]VK[ξC][AEEA][Aun]-OH; thioether N-14) | 7.2
CC[C@H](C)[C@@H]1NC(=O)[C@H](Cc2ccc(-c3ccccc3)cc2)NC(=O)[C@H](C(C)C)NC(=O)[C@H](Cc2c[nH]c3ccccc23)NC(=O)[C@H](CC(=O)O)NC(=O)[C@H](Cc2ccc(OCC(=O)O)cc2)NC(=O)[C@H](CN)NC(=O)CSCC(C(=O)NCCOCCOCC(=O)NCCCCCCCCCCC(=O)O)NC(=O)[C@H](CCCCN)NC(=O)[C@H](C(C)C)NC(=O)[C@H](CC2CCCCC2)NC(=O)[C@H](CCN)NC(=O)[C@@H](CC(C)C)NC(=O)[C@H](CCCN)NC1=O (stereo partly drawn) [Compound 2644] ({CH2CO}-[Dap]Y(Carboxymethyl)DWV[Bip]I[Orn][dL][Dab][Cha]VK[ξC][AEEA][Aun]-OH; thioether N-14) | 9.4
Cc1cccc(C[C@@H]2NC(=O)[C@H](CC(=O)O)NC(=O)[C@H](Cc3ccc(OCC(=O)O)cc3)NC(=O)[C@H](CN)NC(=O)CSCC(C(=O)NCCOCCOCC(=O)NCCCCCCCCCCC(=O)O)NC(=O)[C@H](CN)NC(=O)[C@H](C(C)C)NC(=O)[C@H](CC3CCCCC3)NC(=O)[C@H](CCN)NC(=O)[C@@H](CC(C)C)NC(=O)[C@H](CCCN)NC(=O)[C@H](CCCNC(N)=O)NC(=O)[C@H](Cc3ccc(-c4ccccc4)cc3)NC(=O)[C@H](C(C)C)NC2=O)c1 (stereo partly drawn) [Compound 2645] ({CH2CO}-[Dap]Y(Carboxymethyl)D[Phe(3-Me)]V[Bip][Cit][Orn][dL][Dab][Cha]V[Dap][ξC][AEEA][Aun]-OH; thioether N-14) | 15.4
CC[C@H](C)[C@@H]1NC(=O)[C@H](Cc2ccc(-c3ccccc3)cc2)NC(=O)[C@H](C(C)C)NC(=O)[C@H](Cc2cccc(C)c2)NC(=O)[C@H](CC(=O)O)NC(=O)[C@H](Cc2ccc(OCC(=O)O)cc2)NC(=O)[C@H](CN)NC(=O)CSCC(C(=O)NCCOCCOCC(=O)NCCCCCCCCCCC(=O)O)NC(=O)[C@H](CN)NC(=O)[C@H](C(C)C)NC(=O)[C@H](CC2CCCCC2)NC(=O)[C@H](CCN)NC(=O)[C@@H](CC(C)C)NC(=O)[C@H](CCCN)NC1=O (stereo partly drawn) [Compound 2646] ({CH2CO}-[Dap]Y(Carboxymethyl)D[Phe(3-Me)]V[Bip]I[Orn][dL][Dab][Cha]V[Dap][ξC][AEEA][Aun]-OH; thioether N-14) | 13.2
Cc1cccc(C[C@@H]2NC(=O)[C@H](CC(=O)O)NC(=O)[C@H](Cc3ccc(OCC(=O)O)cc3)NC(=O)[C@H](CN)NC(=O)CSCC(C(=O)NCCOCCOCC(=O)NCCCCCCCCCCC(=O)O)NC(=O)[C@H](CCCN)NC(=O)[C@H](C(C)C)NC(=O)[C@H](CC3CCCCC3)NC(=O)[C@H](CCN)NC(=O)[C@@H](CC(C)C)NC(=O)[C@H](CCCN)NC(=O)[C@H](CCCNC(N)=O)NC(=O)[C@H](Cc3ccc(-c4ccccc4)cc3)NC(=O)[C@H](C(C)C)NC2=O)c1 (stereo partly drawn) [Compound 2647] ({CH2CO}-[Dap]Y(Carboxymethyl)D[Phe(3-Me)]V[Bip][Cit][Orn][dL][Dab][Cha]V[Orn][ξC][AEEA][Aun]-OH; thioether N-14) | 7.7
CC[C@H](C)[C@@H]1NC(=O)[C@H](Cc2ccc(-c3ccccc3)cc2)NC(=O)[C@H](C(C)C)NC(=O)[C@H](Cc2cccc(C)c2)NC(=O)[C@H](CC(=O)O)NC(=O)[C@H](Cc2ccc(OCC(=O)O)cc2)NC(=O)[C@H](CN)NC(=O)CSCC(C(=O)NCCOCCOCC(=O)NCCCCCCCCCCC(=O)O)NC(=O)[C@H](CCCN)NC(=O)[C@H](C(C)C)NC(=O)[C@H](CC2CCCCC2)NC(=O)[C@H](CCN)NC(=O)[C@@H](CC(C)C)NC(=O)[C@H](CCCN)NC1=O (stereo partly drawn) [Compound 2648] ({CH2CO}-[Dap]Y(Carboxymethyl)D[Phe(3-Me)]V[Bip]I[Orn][dL][Dab][Cha]V[Orn][ξC][AEEA][Aun]-OH; thioether N-14) | 8.9
Cc1cccc(C[C@@H]2NC(=O)[C@H](CC(=O)O)NC(=O)[C@H](Cc3ccc(OCC(=O)O)cc3)NC(=O)[C@H](CN)NC(=O)CSC[C@@H](C(=O)N[C@@H](CCCCN)C(=O)NCCOCCOCC(=O)NCCCCCCCCCCC(=O)O)NC(=O)[C@H](CN)NC(=O)[C@H](C(C)C)NC(=O)[C@H](CC3CCCCC3)NC(=O)[C@H](CCN)NC(=O)[C@@H](CC(C)C)NC(=O)[C@H](CCCN)NC(=O)[C@H](CCCNC(N)=O)NC(=O)[C@H](Cc3ccc(-c4ccccc4)cc3)NC(=O)[C@H](C(C)C)NC2=O)c1 [Compound 2649] ({CH2CO}-[Dap]Y(Carboxymethyl)D[Phe(3-Me)]V[Bip][Cit][Orn][dL][Dab][Cha]V[Dap]CK[AEEA][Aun]-OH; thioether N-14) | 11.1
CC[C@H](C)[C@@H]1NC(=O)[C@H](Cc2ccc(-c3ccccc3)cc2)NC(=O)[C@H](C(C)C)NC(=O)[C@H](Cc2cccc(C)c2)NC(=O)[C@H](CC(=O)O)NC(=O)[C@H](Cc2ccc(OCC(=O)O)cc2)NC(=O)[C@H](CN)NC(=O)CSC[C@@H](C(=O)N[C@@H](CCCCN)C(=O)NCCOCCOCC(=O)NCCCCCCCCCCC(=O)O)NC(=O)[C@H](CN)NC(=O)[C@H](C(C)C)NC(=O)[C@H](CC2CCCCC2)NC(=O)[C@H](CCN)NC(=O)[C@@H](CC(C)C)NC(=O)[C@H](CCCN)NC1=O [Compound 2650] ({CH2CO}-[Dap]Y(Carboxymethyl)D[Phe(3-Me)]V[Bip]I[Orn][dL][Dab][Cha]V[Dap]CK[AEEA][Aun]-OH; thioether N-14) | 11.5
Cc1cccc(C[C@@H]2NC(=O)[C@H](CC(=O)O)NC(=O)[C@H](Cc3ccc(OCC(=O)O)cc3)NC(=O)[C@H](CN)NC(=O)CSC[C@@H](C(=O)N[C@@H](CCCCN)C(=O)NCCOCCOCC(=O)NCCCCCCCCCCC(=O)O)NC(=O)[C@H](CCCN)NC(=O)[C@H](C(C)C)NC(=O)[C@H](CC3CCCCC3)NC(=O)[C@H](CCN)NC(=O)[C@@H](CC(C)C)NC(=O)[C@H](CCCN)NC(=O)[C@H](CCCNC(N)=O)NC(=O)[C@H](Cc3ccc(-c4ccccc4)cc3)NC(=O)[C@H](C(C)C)NC2=O)c1 [Compound 2651] ({CH2CO}-[Dap]Y(Carboxymethyl)D[Phe(3-Me)]V[Bip][Cit][Orn][dL][Dab][Cha]V[Orn]CK[AEEA][Aun]-OH; thioether N-14) | 9.7
CC[C@H](C)[C@@H]1NC(=O)[C@H](Cc2ccc(-c3ccccc3)cc2)NC(=O)[C@H](C(C)C)NC(=O)[C@H](Cc2cccc(C)c2)NC(=O)[C@H](CC(=O)O)NC(=O)[C@H](Cc2ccc(OCC(=O)O)cc2)NC(=O)[C@H](CN)NC(=O)CSC[C@@H](C(=O)N[C@@H](CCCCN)C(=O)NCCOCCOCC(=O)NCCCCCCCCCCC(=O)O)NC(=O)[C@H](CCCN)NC(=O)[C@H](C(C)C)NC(=O)[C@H](CC2CCCCC2)NC(=O)[C@H](CCN)NC(=O)[C@@H](CC(C)C)NC(=O)[C@H](CCCN)NC1=O [Compound 2652] ({CH2CO}-[Dap]Y(Carboxymethyl)D[Phe(3-Me)]V[Bip]I[Orn][dL][Dab][Cha]V[Orn]CK[AEEA][Aun]-OH; thioether N-14) | 6.1
Cc1cccc(C[C@@H]2NC(=O)[C@H](CC(=O)O)NC(=O)[C@H](Cc3ccc(OCC(=O)O)cc3)NC(=O)[C@H](CN)NC(=O)CSC[C@@H](C(=O)N[C@@H](CCCCN)C(=O)NCCOCCOCC(=O)NCCCCCCCCCCC(=O)O)NC(=O)[C@H](CCCNC(=N)N)NC(=O)[C@H](C(C)C)NC(=O)[C@H](CC3CCCCC3)NC(=O)[C@H](CCN)NC(=O)[C@@H](CC(C)C)NC(=O)[C@H](CCCN)NC(=O)[C@H](CCCNC(N)=O)NC(=O)[C@H](Cc3ccc(-c4ccccc4)cc3)NC(=O)[C@H](C(C)C)NC2=O)c1 [Compound 2653] ({CH2CO}-[Dap]Y(Carboxymethyl)D[Phe(3-Me)]V[Bip][Cit][Orn][dL][Dab][Cha]VRCK[AEEA][Aun]-OH; thioether N-14) | 11.2
CC[C@H](C)[C@@H]1NC(=O)[C@H](Cc2ccc(-c3ccccc3)cc2)NC(=O)[C@H](C(C)C)NC(=O)[C@H](Cc2cccc(C)c2)NC(=O)[C@H](CC(=O)O)NC(=O)[C@H](Cc2ccc(OCC(=O)O)cc2)NC(=O)[C@H](CN)NC(=O)CSC[C@@H](C(=O)N[C@@H](CCCCN)C(=O)NCCOCCOCC(=O)NCCCCCCCCCCC(=O)O)NC(=O)[C@H](CCCNC(=N)N)NC(=O)[C@H](C(C)C)NC(=O)[C@H](CC2CCCCC2)NC(=O)[C@H](CCN)NC(=O)[C@@H](CC(C)C)NC(=O)[C@H](CCCN)NC1=O [Compound 2654] ({CH2CO}-[Dap]Y(Carboxymethyl)D[Phe(3-Me)]V[Bip]I[Orn][dL][Dab][Cha]VRCK[AEEA][Aun]-OH; thioether N-14) | 5.2
